The IC50 is the midpoint of a concentration-inhibition curve.

Each structure is given as a SMILES string. Read-outs that look alike come from different tables or passages of the source.

IC50 data for 10 compounds are collected here from patent US10821115B2, “Compounds that inhibit Mcl-1 protein” (priority 2017, dated 2020).

Assay [1] relates to human multiple myeloma cell line, OPM-2. In words: Cell viability assay (OPM-2 10 FBS), CellTiter-Glo. The format is cell-based. In short, it runs like this:
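Steps: plate cells at 3000/well in 10% FBS growth medium, add serially diluted compound, incubate 16 h at 37 °C with 5% CO2, add detection reagent and read luminescence after 25 min. A 4-parameter logistic model gives IC50.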
(In general: ATP-based viability assays read luminescence as a measure of living cells.)

The target in assay [2] is recombinant human Mcl-1 (residues 171-327) / Bim interaction (Homo sapiens (Human), UniProt Q07820). Nature of the assay: biochemical. Format: binding. As to conditions: read-out: Mcl-1 HTRF IC50. A general note: In TR-FRET formats the signal depends on donor and acceptor labels being close together.
Chain of recombinant human Mcl-1 (residues 171-327) / Bim interaction (Q07820 171-327): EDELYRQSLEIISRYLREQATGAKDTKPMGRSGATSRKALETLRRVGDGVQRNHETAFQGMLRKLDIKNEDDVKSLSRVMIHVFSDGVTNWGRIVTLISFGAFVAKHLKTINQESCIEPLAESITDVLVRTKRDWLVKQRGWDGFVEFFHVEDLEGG
[3] abbreviates: read-out: OPM-2 10% FBS IC50 IP, OPM-2 cells, 10% FBS, 16 h, CellTiter-Glo.
The mark [4] stands for this setting: TR-FRET, Mcl-1(171-327) / biotin-Bim (51-76).
Where [5] appears, read: Homo sapiens, OPM-2, 16 h, read-out: OPM-2 10% FBS IC50 IP, OPM-2 cells, 10% FBS, 16 h incubation.
Setting [6] is: 0.1 nM Mcl-1(171-327), 0.05 nM biotin-Bim (51-76).
Where [7] appears, read: Homo sapiens, OPM-2, 16 h, read-out: OPM-2 10% FBS IC50 IP, OPM-2 cells, 10% FBS, 16 h, CellTiter-Glo.

As for `C[C@@H]1[C@@H](C)CCC[C@@](O)(CC(=O)N2CCCCC2)[C@@H]2CC[C@H]2CN2C[C@@]3(CCCc4cc(Cl)ccc43)COc3ccc(cc32)C(=O)NS1(=O)=O` [Example 100090, (1S,3′R,6′R,7′R,11′S,12′R)-6-chloro-7′-hydroxy-11′,12′-dimethyl-7′-(2-oxo-2-(1-piperidinyl)ethyl)-3,4-dihydro-2H,15′H-spiro[naphthalene-1,22′-[20]oxa[13]thia[1,14]diazatetracyclo [14.7.2.0~3,6~.0~19,24~]pentacosa[16,18,24]trien]-15′-one 13′,13′-dioxide], the IC50 stood at 798 nM in assay [1] (setting [3]) and 0.795 nM in assay [2] (setting [4]).
As for `CO[C@]1(CN2CCC(N3CCOCC3)CC2)/C=C/C[C@H](C)[C@@H](C)S(=O)(=O)NC(=O)c2ccc3c(c2)N(C[C@@H]2CC[C@H]21)C[C@@]1(CCCc2cc(Cl)ccc21)CO3` [Example 85, (1S,3′R,6′R,7′R,8′E,11′S,12′R)-6-chloro-7′-methoxy-11′,12′-dimethyl-7′-((4-(4-morpholinyl)-1-piperidinyl)methyl)-3,4-dihydro-2H,15′H-spiro[naphthalene-1,22′-[20]oxa[13]thia[1,14]diazatetracyclo [14.7.2.0~3,6~.0~19,24~]pentacosa[8,16,18,24]tetraen]-15′-one 13′,13′-dioxide], the IC50 in assay [1] (setting [5]) was determined as 274 nM; in assay [2] (setting [6]) it was 0.491 nM.
With `COC[C@]1(O)/C=C/C[C@H](C)[C@@H](C)S(=O)(=O)NC(=O)c2ccc3c(c2)N(C[C@@H]2CC[C@H]21)C[C@@]1(CCCc2cc(Cl)ccc21)CO3` [Example 100378, (1S,3′R,6′R,7′S,8′E,11′S,12′R)-6-chloro-7′-hydroxy-7′-(methoxymethyl)-11′,12′-dimethyl-3,4-dihydro-2H,15′H-spiro[naphthalene-1,22′-[20]oxa[13]thia[1,14]diazatetracyclo [14.7.2.0~3,6~.0~19,24~]pentacosa[8,16,18,24]tetraen]-15′-one 13′,13′-dioxide], the results for the IC50 in assay [1] (setting [7]) and in assay [2] (setting [4]) were 111 nM and 0.037 nM, respectively.
Turning to `COCC[C@@H]1[C@@H](C)C/C=C/[C@](CN2CCN(C)CC2)(OC)[C@@H]2CC[C@H]2CN2C[C@@]3(CCCc4cc(Cl)ccc43)COc3ccc(cc32)C(=O)NS1(=O)=O` [Example 180, (1S,3′R,6′R,7′S,8′E,11′S,12′R)-6-chloro-7′-methoxy-12′-(2-methoxyethyl)-11′-methyl-7′-((4-methyl-1-piperazinyl)methyl)-3,4-dihydro-2H,15′H-spiro[naphthalene-1,22′-[20]oxa[13]thia[1,14]diazatetracyclo [14.7.2.0~3,6~.0~19,24~]pentacosa[8,16,18,24]tetraen]-15′-one 13′,13′-dioxide], the IC50 was 81 nM in assay [1] (setting [5]) and 0.106 nM in assay [2] (setting [6]).
`CO[C@@]1(Cc2nnc(C)o2)/C=C/C[C@H](C)[C@@H](C)S(=O)(=O)NC(=O)c2ccc3c(c2)N(C[C@@H]2CC[C@H]21)C[C@@]1(CCCc2cc(Cl)ccc21)CO3` [Example 100512, (1S,3′R,6′R,7′S,8′E,11′S,12′R)-6-chloro-7′-methoxy-11′,12′-dimethyl-7′-((5-methyl-1,3,4-oxadiazol-2-yl)methyl)-3,4-dihydro-2H,15′H-spiro[naphthalene-1,22′-[20]oxa[13]thia[1,14]diazatetracyclo [14.7.2.0~3,6~.0~19,24~]pentacosa[8,16,18,24]tetraen]-15′-one 13′,13′-dioxide]: the IC50 came to 1490 nM in assay [1] (setting [7]) and 0.415 nM in assay [2] (setting [4]).
`CO[C@@]1(CN2CC(=O)N3CCCC[C@@H]3C2)/C=C/C[C@H](C)[C@@H](C)S(=O)(=O)NC(=O)c2ccc3c(c2)N(C[C@@H]2CC[C@H]21)C[C@@]1(CCCc2cc(Cl)ccc21)CO3` [Example 150, (1S,3′R,6′R,7′S,8′E,11′S,12′R)-6-chloro-7′-methoxy-11′,12′-dimethyl-7′-(((9aR)-4-oxooctahydro-2H-pyrido[1,2-a]pyrazin-2-yl)methyl)-3,4-dihydro-2H,15′H-spiro[naphthalene-1,22′-[20]oxa[13]thia[1,14]diazatetracyclo [14.7.2.0~3,6~.0~19,24~]pentacosa[8,16,18,24]tetraen]-15′-one 13′,13′-dioxide]: the IC50 in assay [1] (setting [5]) is 245 nM; in assay [2] (setting [6]) it was 0.193 nM.
For `C[C@@H]1[C@@H](C)CCCC(CN2CCOCC2)(CN2CCOCC2)[C@@H]2CC[C@H]2CN2C[C@@]3(CCCc4cc(Cl)ccc43)COc3ccc(cc32)C(=O)NS1(=O)=O` [Example 100452, (1S,3′R,6′R,11′S,12′R)-6-chloro-11′,12′-dimethyl-7′,7′-bis(4-morpholinylmethyl)-3,4-dihydro-2H,15′H-spiro[naphthalene-1,22′-[20]oxa[13]thia[1,14]diazatetracyclo [14.7.2.0~3,6~.0~19,24~]pentacosa[16,18,24]trien]-15′-one 13′,13′-dioxide], the IC50 amounted to 157 nM in assay [1] (setting [7]) and 0.077 nM in assay [2] (setting [4]).
Turning to `CO[C@@]1(CN2CCN3CCCC[C@@H]3C2)/C=C/C[C@H](C)[C@@H](CC2CCC2)S(=O)(=O)NC(=O)c2ccc3c(c2)N(C[C@@H]2CC[C@H]21)C[C@@]1(CCCc2cc(Cl)ccc21)CO3` [Example 41, (1S,3′R,6′R,7′S,8′E,11′S,12′R)-6-chloro-12′-(cyclobutylmethyl)-7′-methoxy-11′-methyl-7′-((9aR)-octahydro-2H-pyrido[1,2-a]pyrazin-2-ylmethyl)-3,4-dihydro-2H,15′H-spiro[naphthalene-1,22′-[20]oxa[13]thia[1,14]diazatetracyclo [14.7.2.0~3,6~.0~19,24~]pentacosa[8,16,18,24]tetraen]-15′-one 13′,13′-dioxide], the results for the IC50 in assay [1] (setting [5]) and in assay [2] (setting [6]) were 810 nM and 0.642 nM, respectively.
Take `CCOP(=O)(OCC)C(F)(F)[C@]1(O)/C=C/C[C@H](C)[C@@H](C)S(=O)(=O)NC(=O)c2ccc3c(c2)N(C[C@@H]2CC[C@H]21)C[C@@]1(CCCc2cc(Cl)ccc21)CO3` [Example 100068, diethyl (((1S,3′R,6′R,7′S,8′E,11′S,12′R)-6-chloro-7′-hydroxy-11′,12′-dimethyl-13′,13′-dioxido-15′-oxo-3,4-dihydro-2H-spiro[naphthalene-1,22′-[20]oxa[13]thia[1,14]diazatetracyclo [14.7.2.0~3,6~.0~19,24~]pentacosa[8,16,18,24]tetraen]-7′-yl)(difluoro)methyl)phosphonate]: the half-inhibitory concentration (IC50) in assay [1] (setting [3]) was 765 nM; in assay [2] (setting [4]), 4.41 nM.
Take `C[C@@H]1[C@@H](C)CCC[C@@](O)([C@@H]2CCN(C)C2=O)[C@@H]2CC[C@H]2CN2C[C@@]3(CCCc4cc(Cl)ccc43)COc3ccc(cc32)C(=O)NS1(=O)=O` [Example 100202, (1S,3′R,6′R,7′S,11′S,12′R)-6-chloro-7′-hydroxy-11′,12′-dimethyl-7′-((3S)-1-methyl-2-oxo-3-pyrrolidinyl)-3,4-dihydro-2H,15′H-spiro[naphthalene-1,22′-[20]oxa[13]thia[1,14]diazatetracyclo [14.7.2.0~3,6~.0~19,24~]pentacosa[16,18,24]trien]-15′-one 13′,13′-dioxide]: the IC50 came out at 928 nM in assay [1] (setting [3]) and 0.352 nM in assay [2] (setting [4]).
